According to paper PMC6045421 (ACS Omega, 2018):
Entries after “also recorded” stand apart in the source; their conditions may differ.

Columns and labels:
[1] = biological target: recombinant human IRAP (Homo sapiens, UniProt Q9UIQ6); format: biochemical; details: HEK293
[2] = system: aminopeptidase N (APN); details: cited from earlier work
[3] = system: leukotriene A4 hydrolase (LTA4H); details: cited from earlier work
[4] = system: IRAP from Chinese hamster ovary (CHO) cells; details: read-out: IC50 in CHO cells, hamster enzyme; cited from earlier work
[5] = system: primary hippocampal neuron cultures; details: primary hippocampal neuron cultures from mice; cited from earlier work
[6] = Stability in human liver microsomes; format: in vitro ADME; details: HLM and MLM

Chain of recombinant human IRAP (Q9UIQ6 whole entry): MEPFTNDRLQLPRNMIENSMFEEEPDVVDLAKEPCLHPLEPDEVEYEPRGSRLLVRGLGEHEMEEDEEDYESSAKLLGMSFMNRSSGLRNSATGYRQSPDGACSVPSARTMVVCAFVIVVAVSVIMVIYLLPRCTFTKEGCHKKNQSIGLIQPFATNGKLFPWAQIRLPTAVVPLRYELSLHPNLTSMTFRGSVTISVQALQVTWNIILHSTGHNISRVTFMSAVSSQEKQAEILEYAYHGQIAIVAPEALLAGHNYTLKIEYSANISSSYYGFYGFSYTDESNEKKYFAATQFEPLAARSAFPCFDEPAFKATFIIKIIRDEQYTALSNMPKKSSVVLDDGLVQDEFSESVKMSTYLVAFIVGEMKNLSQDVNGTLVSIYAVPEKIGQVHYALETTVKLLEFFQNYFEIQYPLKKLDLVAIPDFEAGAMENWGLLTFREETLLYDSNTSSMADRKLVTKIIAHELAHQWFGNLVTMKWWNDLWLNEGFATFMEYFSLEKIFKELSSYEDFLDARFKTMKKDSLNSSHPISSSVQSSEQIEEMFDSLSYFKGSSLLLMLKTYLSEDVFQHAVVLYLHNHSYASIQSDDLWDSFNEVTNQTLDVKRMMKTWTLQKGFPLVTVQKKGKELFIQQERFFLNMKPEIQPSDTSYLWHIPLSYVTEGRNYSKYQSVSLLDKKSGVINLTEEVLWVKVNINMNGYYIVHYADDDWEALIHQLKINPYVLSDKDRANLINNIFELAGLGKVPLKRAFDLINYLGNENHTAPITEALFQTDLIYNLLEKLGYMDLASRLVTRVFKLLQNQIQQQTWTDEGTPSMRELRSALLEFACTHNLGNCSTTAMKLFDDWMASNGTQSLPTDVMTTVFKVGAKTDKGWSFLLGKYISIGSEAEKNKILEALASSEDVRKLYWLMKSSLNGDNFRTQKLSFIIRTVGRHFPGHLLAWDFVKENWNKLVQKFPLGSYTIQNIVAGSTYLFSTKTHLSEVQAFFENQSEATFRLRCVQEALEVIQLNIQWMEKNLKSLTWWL

With `O=C(Nc1cccc(-c2nnn[nH]2)c1)c1cc(Br)c(Cl)s1` [Compound 12] the “IRAP inhibition (in words)” value [1] was “complete lack of inhibitory activity”.

With `O=S(=O)(Nc1cccc(-c2nnn[nH]2)c1)c1cc(Cl)c(Cl)s1` [Compound 13] the “IRAP inhibition (in words)” value [1] was “submicromolar activity”.

With `O=S(=O)(Nc1cccc(-c2nnn[nH]2)c1)c1ccc(-c2ccccc2)cc1` [Compound 20] the “IRAP inhibition (in words)” value [1] was “totally inactive”.

For `O=S(=O)(Nc1cccc(-c2nnn[nH]2)c1)c1ccc(Cl)c2nonc12` [Compound 21], the “IRAP inhibition (in words)” value [1] is given as “submicromolar”, the “inhibition of APN relative to IRAP (in words)” value [2] is given as “much lower efficacy” and the “inhibition of LTA4H relative to IRAP (in words)” value [3] is given as “much lower efficacy”.

For `Cc1ccc(S(=O)(=O)Nc2cccc(-c3nnn[nH]3)c2)cc1C` [Compound 25], the “IRAP inhibition (in words)” value [1] is listed as “submicromolar potency”, the “inhibition of APN relative to IRAP (in words)” value [2] is listed as “much lower efficacy” and the “inhibition of LTA4H relative to IRAP (in words)” value [3] is listed as “much lower efficacy”. The IC50 [4] was 3100 nM and the “density of dendritic spines (in words)” value [5] was “enhance the density of dendritic spines”.

In the case of `O=S(=O)(Nc1cccc(-c2nnn[nH]2)c1)c1cc(Cl)c(Cl)cc1Cl` [Compound 26], the “IRAP inhibition (in words)” value [1] is listed as “submicromolar potency”, the “inhibition of APN relative to IRAP (in words)” value [2] is listed as “much lower efficacy” and the “inhibition of LTA4H relative to IRAP (in words)” value [3] is listed as “much lower efficacy”. The IC50 [4] was 2900 nM and the “density of dendritic spines (in words)” value [5] was “enhance the density of dendritic spines”.

For `O=S(=O)(Nc1cccc(-c2nnn[nH]2)c1)c1cc(C(F)(F)F)ccc1C(F)(F)F` [Compound 29, N-(3-(1H-Tetrazol-5-yl)phenyl)-2,5-bis(trifluoromethyl)benzenesulfonamide], the “IRAP inhibition (in words)” value [1] was “submicromolar potency; also recorded: submicromolar affinity” and the “stability in the microsome assays (in words)” value [6] was “high metabolic stability”.
